# Ends that are not written are not given here. * marks the point of attachment. Isobutyryl(2-OH) = CC(C)(O)C(=O)*
# Columns and labels:
# recombinant ENO = assay type: biochemical, P. mirabilis; settings: NAM 10 mM with CobB and NAD^+, 25°C, 10 hours, Western blotting
# CobB = experiment: LC-MS detection of deacylation of gpmA peptides by CobB; assay type: biochemical, P. mirabilis
# P. mirabilis = experiment: Growth curve of overexpressing P. mirabilis; assay type: cell-based; settings: ENO WT or mutant-overexpressing P. mirabilis, OD600, 37°C
# WT CobB = experiment: De-2-hydroxyisobutyrylation kinetics by MALDI-TOF MS, WT CobB; assay type: biochemical, P. mirabilis
# Y55F CobB = experiment: De-2-hydroxyisobutyrylation kinetics by MALDI-TOF MS, Y55F CobB; assay type: biochemical, P. mirabilis
# R58M CobB = experiment: ITC affinity of Khib peptide with R58M CobB; assay type: binding, P. mirabilis; settings: 37°C
# R58M mutant CobB = experiment: LC-MS detection of deacylation of gpmA peptides by R58M mutant CobB; assay type: biochemical, P. mirabilis; settings: 50 μM peptide, 1 μM CobB, 1 mM NAD^+, pH 8.5, 37°C, 2 hours
# Y55F CobB (P. mirabilis) = experiment: ITC
# R58M CobB (P. mirabilis) = experiment: ITC
# [1] = target: recombinant CobB (WT) (P. mirabilis); experiment: ITC
# [2] = Km for peptide, MALDI-TOF MS, 1 mM NAD^+, pH 8.5, 37°C, 2 min
# [3] = MALDI-TOF MS, 1 mM NAD^+, pH 8.5, 37°C, 2 min, 2-285 μM peptide
molecule,measurement,setting,value
"NC(=O)c1cccnc1 [NAM, nicotinamide]",change of modifications of ENO with NAD^+ and NAM,recombinant ENO,no significant change in the modifications of ENO
same,inhibitory effect on removal of Khib relative to other acyl groups,CobB; NAM 10 mM,greatest inhibitory effect on Khib
same,inhibitory effect on removal of Ksucc relative to other acyl groups,CobB; NAM 10 mM,least effect on Ksucc
same,inhibition of de-2-hydroxyisobutyrylation reaction,"CobB; NAM 10 mM, 50 μM peptide, 1 μM CobB",inhibited efficiently
ENO-K326Q/K343T,growth rate,P. mirabilis,the lowest
"ENO: enolase of P. mirabilis, His-tagged fusion protein",growth rate,P. mirabilis,faster than that of mutated ENO-overexpressing P. mirabilis
YGDEQVK(hib)QWR,kcat/Km,WT CobB,1.7e+10 M⁻¹ s⁻¹
same,Km,WT CobB; [2],13.3 ± 1.6 µM
same,kcat,WT CobB; [3],0.225 ± 0.011 s⁻¹
same,kcat/Km,Y55F CobB,8.3e+09 M⁻¹ s⁻¹
same,Km,Y55F CobB; [2],12.2 ± 2 µM
same,kcat,Y55F CobB; [3],0.101 ± 0.006 s⁻¹
same,change of affinity of R58M CobB compared with WT CobB,R58M CobB,significantly decreased eight times
same,deacylated peptide after treatment with R58M mutant,R58M mutant CobB,not detectable
same,hydrolysis by CobB in the presence of NAD^+,"CobB; 50 μM peptide, 1 μM CobB, 1 mM NAD^+, pH 8.5, 37°C, 2 hours",efficiently catalyzed the hydrolysis
same,de-2-hydroxyisobutyrylated peptide without NAD^+,"CobB; 50 μM peptide, 1 μM CobB, without NAD^+",not detected
YGDEQVK(Isobutyryl(2-OH))QWR [2-hydroxyisobutyrylated peptide [YGDEQVK(hib)QWR]],Kd,Y55F CobB (P. mirabilis),2340 nM
same,Kd,R58M CobB (P. mirabilis),15900 nM
same,Kd,[1],2030 nM
